The source of these data is patent publication US20070270436A1, “NOVEL AMINO- AND IMINO-ALKYLPIPERAZINES” (Recordati Ireland Limited, priority 2006, published 2007).

One experiment concerns the target T1, 5-HT1A receptors (Rattus norvegicus, UniProt P19327).
T1 construct: from tissue; host or cells: living male Sprague-Dawley rats (whole animal, behavioural read-out)
T1 sequence (P19327 1-422): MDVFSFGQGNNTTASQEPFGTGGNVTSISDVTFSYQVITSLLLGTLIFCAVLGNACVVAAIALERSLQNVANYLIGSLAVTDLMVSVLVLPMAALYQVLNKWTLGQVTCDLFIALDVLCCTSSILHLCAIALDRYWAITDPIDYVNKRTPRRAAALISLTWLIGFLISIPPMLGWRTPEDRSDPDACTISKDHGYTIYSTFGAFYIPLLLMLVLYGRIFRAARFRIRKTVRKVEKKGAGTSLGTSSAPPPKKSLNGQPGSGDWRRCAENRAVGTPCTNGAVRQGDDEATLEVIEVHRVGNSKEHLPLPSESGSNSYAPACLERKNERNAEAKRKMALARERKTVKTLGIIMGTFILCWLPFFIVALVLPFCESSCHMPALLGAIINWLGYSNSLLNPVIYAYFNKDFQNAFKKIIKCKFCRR
Nature of the experiment: Inhibition of serotonergic syndrome (forepaw treading) induced by 8-OH-DPAT in rats (post-synaptic antagonism). Conditions: for inhibition at 10 mg/kg: rat. It is filed as in vivo. As for the experimental part: The inhibitory effect of 5-HT1A-receptor antagonists on stereotyped forepaw treading induced in rats by subcutaneous injection of 8-OH-DPAT was evaluated by the method of Tricklebank (Tricklebank et al., Eur. J. Pharmacol., 117: 15, 1985) with minor modifications as described below.
Male Sprague-Dawley rats [Crl: CD® (SD) IGS BR] weighing 150-175 g from Charles River Italia were used. The animals were housed with free access to food and water and maintained on a forced 12-hour-light/12-hour-dark cycle at 22-24° C. of temperature. On the day of the experiment, the rats were placed singly in clear plastic containers, 10-15 minutes before oral administration of the vehicle or compounds to be tested. For evaluation of antagonistic activity, the compounds were administered 1 and 4 hours before induction of stereotypy by 8-OH-DPAT (1 mg/kg subcutaneously). Observation sessions lasted 30 seconds and began 3 minutes after 8-OH-DPAT treatment and were repeated every 3 minutes over a period of 15 minutes.
The appearance of the symptoms induced by postsynaptic stimulation of 5-HT1A receptors was noted, and the intensity was scored using an intensity scale in which: 0=absent, 1=equivocal, 2=present and 3=intense. Behavioural scores for treated rats were accumulated throughout the observation time (5 observation periods) and expressed as mean values of 4 rats/dose. Change in mean values of treated animals in comparison with control (vehicle) group, expressed as per-cent inhibition, was used to quantify the antagonistic activity.
In order to quantitate the potency of the compound of Example 24 in inhibiting the stereotypy (forepaw treading) induced by 8-OH-DPAT, an ED50 value (dose inhibiting by 50% the forepaw treading) was evaluated by means of linear regression using the least square method.

The target in experiment [1] is T2, human 5HT1A-serotonergic receptor (Homo sapiens, UniProt P08908).
T2 construct: expressed in transfected cells; host or cells: HeLa (human), stably transfected; membranes
T2 sequence (P08908 1-422): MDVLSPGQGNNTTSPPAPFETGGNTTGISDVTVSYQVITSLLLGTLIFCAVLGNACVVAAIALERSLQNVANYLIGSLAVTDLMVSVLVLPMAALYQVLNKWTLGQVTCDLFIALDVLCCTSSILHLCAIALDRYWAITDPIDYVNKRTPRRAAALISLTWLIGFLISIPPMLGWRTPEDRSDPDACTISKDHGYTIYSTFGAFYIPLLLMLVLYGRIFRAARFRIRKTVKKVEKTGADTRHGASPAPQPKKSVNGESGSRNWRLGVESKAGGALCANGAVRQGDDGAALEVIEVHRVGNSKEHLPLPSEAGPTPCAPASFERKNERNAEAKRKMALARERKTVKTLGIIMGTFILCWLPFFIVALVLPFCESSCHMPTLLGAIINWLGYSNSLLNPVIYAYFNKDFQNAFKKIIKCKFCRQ
Put plainly: Radioligand binding to recombinant 5-HT1A receptor ([3H]8-OH-DPAT, HeLa cell membranes). Conditions: 1 nM [3H]8-OH-DPAT; Ki from IC50 by the Cheng equation; read-out: Ki (nM), binding affinity for 5HT1A receptor. Put shortly:
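Membranes from HeLa cells stably expressing human 5-HT1A incubated 30 min at 30 °C with 1 nM [3H]8-OH-DPAT in 50 mM Tris pH 7.4, 2.5 mM MgCl2, 10 μM pargyline; non-specific binding with 10 μM 5-HT. Filtration read-out; IC50 by curve fitting, converted to Ki via Cheng-Prusoff.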

Like-named read-outs stand apart in the source and are kept apart here.

On to `COc1ccccc1N1CCN(CCC(c2ccccc2F)C(C2CCCCC2)N(C)C(C)=O)CC1` (racemic) [Example 16, (RS,SR)- and (RS,RS)-N-{-1-Cyclohexyl-2-(2-fluorophenyl)-4-[4-(2-methoxyphenyl)piperazin-1-yl]butyl}-N-methylacetamide], for which the “% Inhibition of forepaw treading, 1 h” value on 5-HT1A receptors (10 mg/kg p.o., 1 h before 8-OH-DPAT 1 mg/kg s.c.) was determined as 80%. In addition, the “% Inhibition of forepaw treading, 4 h” value on 5-HT1A receptors (10 mg/kg p.o., 4 h before 8-OH-DPAT 1 mg/kg s.c.) is listed as 69%. Further, the Ki (usually the equilibrium dissociation constant of an inhibitor or competing ligand from its target) in experiment [1] turned out to be 0.86 nM.

Consider `COc1ccccc1N1CCN(CC[C@@H](c2ccccc2F)[C@H](NC(=S)N(C)C)C2CCCCC2)CC1` (racemic) [Example 24, 3-{(RS,SR)-1-Cyclohexyl-2-(2-fluorophenyl)-4-[4-(2-methoxyphenyl)-piperazin-1-yl]butyl}-1,1-dimethylthiourea], for which the “ED50 (dose inhibiting by 50% the forepaw treading) (95% CL), 1 hour” value on 5-HT1A receptors (1 hour after oral administration) was 2.86 (2.12-3.8) mg/kg p.o. The “ED50 (dose inhibiting by 50% the forepaw treading) (95% CL), 4 hours” value on 5-HT1A receptors (4 hours after oral administration) was 3.67 (2.81-4.93) mg/kg p.o. The inhibition (as a rule, the percentage by which the read-out fell short of the control) at 10 mg/kg came out at 100% at 5-HT1A receptors (10 mg/kg p.o., 1 h before 8-OH-DPAT 1 mg/kg s.c., read-out: % Inhibition of forepaw treading, 1 h) and 90% at 5-HT1A receptors (10 mg/kg p.o., 4 h before 8-OH-DPAT 1 mg/kg s.c., read-out: % Inhibition of forepaw treading, 4 h). For the same compound, the Ki in experiment [1] was 1.23 nM.
